Numbered stars: 1 amine (or outer) side, 2 acyl side, 3 side chain; on linkers, the order of the positions; unused ones are H or OH. Square brackets hold non-standard residues; d marks the D form. Side chains are listed from the residue outwards. Peptide text beside a SMILES is read from it. * marks the point of attachment. C20 diacid = O=C(O)CCCCCCCCCCCCCCCCCCC(=O)*; C18 diacid = O=C(O)CCCCCCCCCCCCCCCCC(=O)*; γGlu = O=C(O)[C@H](CCC(=O)[*:2])N[*:1]; αMeL = CC(C)C[C@](C)(N)C(=O)O; AEEA = NCCOCCOCC(=O)O; Aib = CC(C)(N)C(=O)O
Columns and labels:
human Gcg receptor = target: T1, human Gcg receptor (Homo sapiens, UniProt P47871); experiment: [125I]-Glucagon binding (SPA), human Gcg receptor; details: read-out: hGLcgR Ki, nM (SEM, n)
T1 construct: expressed in transfected cells; crude membranes
Outline: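 Cell pellets were lysed in hypotonic Tris buffer, pH 7.5, homogenized, and spun at low then high speed to give crude membranes. Ki was derived from the fitted IC50.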

human GIP receptor = target: T2, human GIP receptor (Homo sapiens, UniProt P48546); experiment: [125I]-GIP binding (SPA), human GIP receptor; details: read-out: hGIPR Ki, nM (SEM, n)
T2 construct: expressed in transfected cells; crude membranes
T2 sequence (P48546 22-466): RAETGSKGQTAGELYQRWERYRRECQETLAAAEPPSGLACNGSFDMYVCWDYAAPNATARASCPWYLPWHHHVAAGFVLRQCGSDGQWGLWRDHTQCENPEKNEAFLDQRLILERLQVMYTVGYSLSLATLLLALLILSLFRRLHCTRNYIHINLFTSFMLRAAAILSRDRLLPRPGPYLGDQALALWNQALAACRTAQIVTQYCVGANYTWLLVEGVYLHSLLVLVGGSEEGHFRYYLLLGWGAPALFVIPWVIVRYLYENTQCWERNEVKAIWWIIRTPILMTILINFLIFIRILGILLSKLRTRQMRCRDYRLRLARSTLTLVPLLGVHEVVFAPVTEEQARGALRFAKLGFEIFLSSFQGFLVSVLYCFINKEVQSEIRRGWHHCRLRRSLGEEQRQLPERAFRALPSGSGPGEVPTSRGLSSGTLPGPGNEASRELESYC

[1] = target: human GLP-1 receptor (GLP-1R) (Homo sapiens, UniProt P43220); experiment: cAMP pharmacological functional assay in presence of casein, hGLP-1R; format: cell-based; details: HEK293 cells expressing hGLP-1R, 0.1% Casein, geometric mean; read-out: hGLP1R cAMP Rel EC50 nM (SEM, n)
[2] = target: T3, gastric inhibitory peptide receptor (GIPR) (Homo sapiens, UniProt P48546); experiment: cAMP pharmacological functional assay in presence of casein, hGIPR; format: cell-based; details: HEK293 cells expressing hGIPR, 0.1% Casein, geometric mean; read-out: hGIPR cAMP Rel EC50 nM (SEM, n)
T3 sequence (P48546 22-466): T2 sequence (P48546 22-466)

human GLP-1R [3] = target: T4, human GLP-1R (Homo sapiens, UniProt P43220); experiment: [125I]-GLP-1 binding (SPA), human GLP-1 receptor; design: expressed in transfected cells; crude membranes; details: read-out: hGLP1R Ki, (nM) (SEM, n)
Outline: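 Frozen cell pellets are lysed on ice in hypotonic Tris buffer, pH 7.5, homogenized, and centrifuged to a membrane pellet resuspended at about 1 to 3 mg/mL. Binding is then measured in HEPES-based buffer at pH 7.4, and curves are fitted to give IC50 and Ki.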

human GLP-1R [4] = target: T4, human GLP-1R; experiment: GLP-1R HEK293 cell membrane [35S]GTPγS binding assay; format: biochemical; design: expressed in transfected cells; host or cells: HEK293 cells expressing human GLP-1R; membranes; details: HEK293 cell membranes expressing human GLP-1R, [35S]GTPγS binding; read-out: hGLP1R GTPgS Rel EC50 nM (SEM, n)
Experimental: The GLP-1 receptor is a G-protein coupled receptor that increases GTP-bound Gas upon ligand induced receptor activation. The potency of peptides to stimulate-GLP-1R induced activation of Gac is determined using preparations of purified membranes from HEK293 cells expressing the human GLP-1R. […] The test peptides are solubilized in DMSO and diluted in reaction buffer containing 5 μg of membrane in 20 mM HEPES pH 7.4, 50 mM NaCl, 5 mM MgCl2, 40 μg/ml saponin, 0.1% BSA, and […] ^35S-labeled GTPTS for 30 minutes at room temperature. Reactions are terminated by addition of 0.2% Nonidet β-40 detergent containing rabbit anti-Gas polyclonal antibody and 0.5 mg of anti-rabbit polyvinyltoluene beads. Mixtures are developed for 30 minutes, centrifuged at 80×g for 10 minutes, and counted for 1 minute/well using a MicroBeta TriLux instrument. Peptide concentration-response curves are fit to a four-parameter logistic model to calculate potency as an EC50.

T1 sequence (P47871 26-477): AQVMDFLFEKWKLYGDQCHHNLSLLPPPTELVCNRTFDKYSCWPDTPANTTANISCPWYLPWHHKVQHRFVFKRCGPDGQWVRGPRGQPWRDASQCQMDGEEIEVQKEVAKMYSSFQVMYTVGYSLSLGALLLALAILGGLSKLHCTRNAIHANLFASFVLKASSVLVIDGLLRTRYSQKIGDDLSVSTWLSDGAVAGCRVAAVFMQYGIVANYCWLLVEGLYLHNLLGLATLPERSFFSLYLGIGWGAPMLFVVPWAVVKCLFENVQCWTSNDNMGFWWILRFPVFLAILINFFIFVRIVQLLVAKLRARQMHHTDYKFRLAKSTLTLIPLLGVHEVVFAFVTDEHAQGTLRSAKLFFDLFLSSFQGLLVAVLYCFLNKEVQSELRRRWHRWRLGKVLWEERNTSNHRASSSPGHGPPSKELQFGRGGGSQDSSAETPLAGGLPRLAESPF
T4 sequence (P43220 24-463): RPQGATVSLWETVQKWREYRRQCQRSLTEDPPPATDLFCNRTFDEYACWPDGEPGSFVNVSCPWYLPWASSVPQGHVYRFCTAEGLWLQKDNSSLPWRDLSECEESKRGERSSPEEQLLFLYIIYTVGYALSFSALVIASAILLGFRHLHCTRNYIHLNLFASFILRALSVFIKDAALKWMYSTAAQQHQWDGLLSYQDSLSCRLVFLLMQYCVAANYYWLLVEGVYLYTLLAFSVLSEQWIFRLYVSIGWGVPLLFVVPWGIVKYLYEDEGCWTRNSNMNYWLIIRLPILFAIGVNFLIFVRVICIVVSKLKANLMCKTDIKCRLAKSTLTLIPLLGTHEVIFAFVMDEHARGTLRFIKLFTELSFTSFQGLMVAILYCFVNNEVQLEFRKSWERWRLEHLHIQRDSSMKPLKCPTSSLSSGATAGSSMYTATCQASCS
Chain of human GLP-1 receptor (GLP-1R) (P43220 24-463): as above

| Structure (SMILES) | Ki (human Gcg receptor) [nM] | Ki (human GIP receptor) [nM] | EC50 [1] [nM] | EC50 [2] [nM] | Ki (human GLP-1R [3]) [nM] | EC50 (human GLP-1R [4]) [nM] |
| --- | --- | --- | --- | --- | --- | --- |
| CC[C@H](C)[C@H](NC(=O)[C@H](CC(C)C)NC(=O)[C@H](Cc1ccc(O)cc1)NC(=O)[C@H](CCC(=O)O)NC(=O)[C@@H](NC(=O)[C@H](Cc1ccccc1)NC(=O)[C@H](CCC(=O)O)NC(=O)C(C)(C)NC(=O)[C@H](CCC(N)=O)NC(=O)[C@H](C)NC(=O)[C@H](CCCCNC(=O)COCCOCCNC(=O)COCCOCCNC(=O)CC[C@H](NC(=O)CCCCCCCCCCCCCCCCCCC(=O)O)C(=O)O)NC(=O)[C@H](CCCCN)NC(=O)[C@H](CC(=O)O)NC(=O)[C@H](CC(C)C)NC(=O)[C@H](CC(C)C)NC(=O)[C@@H](NC(=O)[C@H](CO)NC(=O)[C@H](Cc1ccc(O)cc1)NC(=O)[C@H](CC(=O)O)NC(=O)[C@H](CO)NC(=O)[C@@H](NC(=O)[C@H](Cc1ccccc1)NC(=O)[C@@H](NC(=O)CNC(=O)[C@H](CCC(=O)O)NC(=O)C(C)(C)NC(=O)[C@@H](N)Cc1ccc(O)cc1)[C@@H](C)O)[C@@H](C)O)[C@@H](C)CC)[C@@H](C)CC)C(=O)N[C@@H](C)C(=O)NCC(=O)NCC(=O)N1CCC[C@H]1C(=O)N[C@@H](CO)C(=O)N[C@@H](CO)C(=O)NCC(=O)N[C@@H](C)C(=O)N1CCC[C@H]1C(=O)N1CCC[C@H]1C(=O)N1CCC[C@H]1C(=O)N[C@@H](CO)C(N)=O [Example 319] (H-Y[Aib]EGTFTSDYSILLDKK([AEEA-AEEA-γGlu-C20 diacid])AQ[Aib]EFIEYLIAGGPSSGAPPPS-NH2) | > 984 | 0.0349 | 0.113 | 0.054 | 3.61 | 0.657 |
| CC[C@H](C)[C@H](NC(=O)[C@H](CC(C)C)NC(=O)[C@H](Cc1ccc(O)cc1)NC(=O)[C@H](CCC(=O)O)NC(=O)[C@@H](NC(=O)[C@H](Cc1ccccc1)NC(=O)[C@H](C)NC(=O)C(C)(C)NC(=O)[C@H](CCC(N)=O)NC(=O)[C@H](C)NC(=O)[C@H](CCCCNC(=O)COCCOCCNC(=O)COCCOCCNC(=O)CC[C@H](NC(=O)CCCCCCCCCCCCCCCCCCC(=O)O)C(=O)O)NC(=O)[C@H](CCCCN)NC(=O)[C@H](CC(=O)O)NC(=O)[C@H](CC(C)C)NC(=O)[C@](C)(CC(C)C)NC(=O)[C@@H](NC(=O)[C@H](CO)NC(=O)[C@H](Cc1ccc(O)cc1)NC(=O)[C@H](CC(=O)O)NC(=O)[C@H](CO)NC(=O)[C@@H](NC(=O)[C@H](Cc1ccccc1)NC(=O)[C@@H](NC(=O)CNC(=O)[C@H](CCC(=O)O)NC(=O)C(C)(C)NC(=O)[C@@H](N)Cc1ccc(O)cc1)[C@@H](C)O)[C@@H](C)O)[C@@H](C)CC)[C@@H](C)CC)C(=O)N[C@@H](C)C(=O)NCC(=O)NCC(=O)N1CCC[C@H]1C(=O)N[C@@H](CO)C(=O)N[C@@H](CO)C(=O)NCC(=O)N[C@@H](C)C(=O)N1CCC[C@H]1C(=O)N1CCC[C@H]1C(=O)N1CCC[C@H]1C(=O)N[C@@H](CO)C(N)=O [Example 324] (H-Y[Aib]EGTFTSDYSI[αMeL]LDKK([AEEA-AEEA-γGlu-C20 diacid])AQ[Aib]AFIEYLIAGGPSSGAPPPS-NH2) | 449 | 0.0278 | 0.0926 | 0.0374 | 0.609 | 0.475 |
| CC[C@H](C)[C@H](NC(=O)[C@H](CC(C)C)NC(=O)[C@H](Cc1ccc(O)cc1)NC(=O)[C@H](CCC(=O)O)NC(=O)[C@@H](NC(=O)[C@H](Cc1ccccc1)NC(=O)[C@H](C)NC(=O)C(C)(C)NC(=O)[C@H](CCC(N)=O)NC(=O)[C@H](C)NC(=O)[C@H](CCCCNC(=O)COCCOCCNC(=O)COCCOCCNC(=O)CC[C@H](NC(=O)CCCCCCCCCCCCCCCCC(=O)O)C(=O)O)NC(=O)[C@H](CCCCN)NC(=O)[C@H](CC(=O)O)NC(=O)[C@H](CC(C)C)NC(=O)[C@H](CC(C)C)NC(=O)[C@@H](NC(=O)[C@H](CO)NC(=O)[C@H](Cc1ccc(O)cc1)NC(=O)[C@H](CC(=O)O)NC(=O)[C@H](CO)NC(=O)[C@@H](NC(=O)[C@H](Cc1ccccc1)NC(=O)[C@@H](NC(=O)CNC(=O)[C@H](CCC(=O)O)NC(=O)C(C)(C)NC(=O)[C@@H](N)Cc1ccc(O)cc1)[C@@H](C)O)[C@@H](C)O)[C@@H](C)CC)C(C)C)C(=O)N[C@@H](CCC(=O)O)C(=O)NCC(=O)NCC(=O)N1CCC[C@H]1C(=O)N[C@@H](CO)C(=O)N[C@@H](CO)C(=O)NCC(N)=O [Example 298] (H-Y[Aib]EGTFTSDYSILLDKK([AEEA-AEEA-γGlu-C18 diacid])AQ[Aib]AFVEYLIEGGPSSG-NH2; N-terminus assumed) | > 1370 | 0.0578 | 0.0957 | 0.043 | 3.03 | 1.03 |
| CC[C@H](C)[C@H](NC(=O)[C@H](CC(C)C)NC(=O)[C@H](Cc1ccc(O)cc1)NC(=O)[C@H](CCC(=O)O)NC(=O)[C@@H](NC(=O)[C@H](Cc1ccccc1)NC(=O)[C@H](C)NC(=O)C(C)(C)NC(=O)[C@H](CCC(N)=O)NC(=O)[C@H](C)NC(=O)[C@H](CCCCNC(=O)COCCOCCNC(=O)COCCOCCNC(=O)CC[C@H](NC(=O)CCCCCCCCCCCCCCCCC(=O)O)C(=O)O)NC(=O)[C@H](CCCCN)NC(=O)[C@H](CC(=O)O)NC(=O)[C@H](CC(C)C)NC(=O)[C@](C)(CC(C)C)NC(=O)[C@@H](NC(=O)[C@H](CO)NC(=O)[C@H](Cc1ccc(O)cc1)NC(=O)[C@H](CC(=O)O)NC(=O)[C@H](CO)NC(=O)[C@@H](NC(=O)[C@H](Cc1ccccc1)NC(=O)[C@@H](NC(=O)CNC(=O)[C@H](CCC(=O)O)NC(=O)C(C)(C)NC(=O)[C@@H](N)Cc1ccccc1)[C@@H](C)O)[C@@H](C)O)[C@@H](C)CC)[C@@H](C)CC)C(=O)N[C@@H](CCC(=O)O)C(=O)N[C@@H](C)C(=O)NCC(=O)N1CCC[C@H]1C(=O)N[C@@H](CO)C(=O)N[C@@H](CO)C(=O)NCC(=O)N[C@@H](C)C(=O)N1CCC[C@H]1C(=O)N1CCC[C@H]1C(=O)N1CCC[C@H]1C(=O)N[C@@H](CO)C(N)=O [Example 328] (H-F[Aib]EGTFTSDYSI[αMeL]LDKK([AEEA-AEEA-γGlu-C18 diacid])AQ[Aib]AFIEYLIEAGPSSGAPPPS-NH2) | > 1450 | 0.136 | 0.117 | 0.0965 | 3.98 | 0.481 |
| CC[C@H](C)[C@H](NC(=O)[C@H](CC(C)C)NC(=O)[C@H](Cc1ccc(O)cc1)NC(=O)[C@H](CCC(=O)O)NC(=O)[C@@H](NC(=O)[C@H](Cc1ccccc1)NC(=O)[C@H](CCC(=O)O)NC(=O)C(C)(C)NC(=O)[C@H](CCC(N)=O)NC(=O)[C@H](C)NC(=O)[C@H](CCCCNC(=O)COCCOCCNC(=O)COCCOCCNC(=O)CC[C@H](NC(=O)CCCCCCCCCCCCCCCCCCC(=O)O)C(=O)O)NC(=O)[C@H](CCCCN)NC(=O)[C@H](CC(=O)O)NC(=O)[C@H](CC(C)C)NC(=O)[C@H](CC(C)C)NC(=O)[C@@H](NC(=O)[C@H](CO)NC(=O)[C@H](Cc1ccc(O)cc1)NC(=O)[C@H](CC(=O)O)NC(=O)[C@H](CO)NC(=O)[C@@H](NC(=O)[C@H](Cc1ccccc1)NC(=O)[C@@H](NC(=O)CNC(=O)[C@H](CCC(=O)O)NC(=O)C(C)(C)NC(=O)[C@@H](N)Cc1ccc(O)cc1)[C@@H](C)O)[C@@H](C)O)[C@@H](C)CC)[C@@H](C)CC)C(=O)N[C@@H](C)C(=O)NCC(=O)NCC(=O)N1CCC[C@H]1C(=O)N[C@@H](CO)C(=O)N[C@@H](CO)C(=O)NCC(N)=O [Example 318] (H-Y[Aib]EGTFTSDYSILLDKK([AEEA-AEEA-γGlu-C20 diacid])AQ[Aib]EFIEYLIAGGPSSG-NH2; N-terminus assumed) | 730 | 0.0452 | 0.124 | 0.0547 | 7.52 | 0.415 |

— patent publication US12252524B2, “GIP/GLP1 co-agonist compounds” (Eli Lilly and Company, priority 2018, dated 2025)
